Source: PubChem BioAssay (NCI)
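Test compounds were applied to cells in 96-well plates for 48 hours at 5 doses. TGI marks complete inhibition of growth.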

How the values were obtained:
Assay in all cases: NCI anticancer screen, dose series, 48 h
[1] = tested on: SK-MEL-2 melanoma
[2] = tested on: MALME-3M melanoma
[3] = tested on: K-562 leukemia
[4] = tested on: MDA-N
[5] = tested on: NCI-H522 lung
[6] = tested on: RXF 393 renal
[7] = tested on: LOX IMVI melanoma
[8] = tested on: OVCAR-8 ovarian
[9] = tested on: SK-MEL-5 melanoma
[10] = tested on: T-47D breast
[11] = tested on: UACC-257 melanoma
[12] = tested on: SF-295 CNS
[13] = tested on: IGROV1 ovarian
[14] = tested on: SR leukemia
[15] = tested on: MCF7 breast
[16] = tested on: OVCAR-4 ovarian
[17] = tested on: OVCAR-5 ovarian
[18] = tested on: A549 NSCLC
[19] = tested on: SF-539 CNS
[20] = tested on: PC-3 prostate
[21] = tested on: MOLT-4 leukemia
[22] = tested on: HT29 colon
[23] = tested on: EKVX NSCLC
[24] = tested on: HCT-15 colon
[25] = tested on: CCRF-CEM leukemia
[26] = tested on: HS 578T breast
[27] = tested on: HOP-92 NSCLC
[28] = tested on: NCI-H23 lung
[29] = tested on: COLO 205 colon
[30] = tested on: SN12C renal
[31] = tested on: MDA-MB-435
[32] = tested on: 786-0 renal
[33] = tested on: TK-10 renal
[34] = tested on: U251 CNS
[35] = tested on: UO-31 renal
[36] = tested on: HOP-62 NSCLC
[37] = tested on: OVCAR-3 ovarian
[38] = tested on: MDA-MB-231 breast
[39] = tested on: RPMI-8226 leukemia
[40] = tested on: KM12 colon
[41] = tested on: A498 renal
[42] = tested on: ACHN renal
[43] = tested on: NCI/ADR-RES ovarian
[44] = tested on: HL-60(TB) leukemia
[45] = tested on: UACC-62 melanoma
[46] = tested on: HCC-2998 colon
[47] = tested on: HCT-116 colon
[48] = tested on: M14 melanoma
[49] = tested on: SK-OV-3 ovarian
[50] = tested on: DU-145 prostate
[51] = tested on: NCI-H460 lung
[52] = tested on: CAKI-1 renal
[53] = tested on: SNB-19 CNS
[54] = tested on: SW-620 colon
[55] = tested on: SK-MEL-28 melanoma
[56] = tested on: SF-268 CNS
[57] = tested on: NCI-H226 lung
[58] = tested on: SNB-75 CNS

Measured: TGI

COC(=O)c1c2c(cc3c1CC1(Cc4cc5c(cc4C1)CCCC5)C3)CCCC2
28.6 µM: [47]
67.3 µM: [6]
not listed: [50] | [51] | [52] | [53] | [54] | [55] | [56] | [57] | [58]
> 100 µM: all other assays above

N#CC(C#N)=C/C=C/c1ccccc1[N+](=O)[O-]
6.29 µM: [4]
5.47 µM: [55]
7.09 µM: [7]
9.39 µM: [45]
3.67 µM: [47]
9.53 µM: [6]
4.84 µM: [43]
7.01 µM: [38]
3.75 µM: [8]
not listed: [17] | [31] | [48]
> 10 µM: all other assays above
